The target of one experiment is T1, LC3A (Homo sapiens, UniProt Q9H492).
T1 construct: modified Ub-leader (ubiquitin fusion leader) (N); made in house; host or cells: E. coli NEB T7 Express
The experiment can be described thus: ITC titration of PLEKHM1-LIR peptide into LC3A. The format is binding. Particulars: 25°C, pH 7.0. The method, then: The genes for the truncated LC3A^2–121, LC3C^8–125, GABARAP^2–117 and GABARAP‐L1^2–117 proteins were cloned into pET30ΔSE vector between the BamHI and XhoI sites using previously established protocols 38. The chimeric constructs of the PLEKHM1‐LIR attached to the LC3A, GABARAP and GABARAP‐L1 proteins were prepared by inserting the oligonucleotide sequence corresponding to the PLEKHM1‐LIR peptide (P^629[…]^638) and glycine–serine linker into the BamHI site of the pET30ΔSE vector, placing the PLEKHM1‐LIR at the N‐terminal of the mature chimeric protein (similar to 31, 38). For the expression of human LC3 and GABARAP proteins for ITC and NMR experiments, plasmids with appropriate modified Ub‐leaders in pET vectors were used 39. Gene, encoding PLEKHM1‐LIR peptide, was ordered as synthetic oligonucleotides (Eurofins Genomics GmbH) and cloned into the pET39_Ub63_ vector 39 by NcoI–BamHI restriction sites. After TEV cleavage, the resulting peptide has the amino acid sequence GAMG‐P^629[…]^642, where the first four residues (GAMG) are the cloning artefact.
The chimeric constructs were expressed as a His‐tag fusion protein in E. coli BL21(DE3) cells. The cells were induced with 0.3 mM IPTG at OD600 0.6 for 16 h at 26°C. The cell pellets were lysed using mechanical sonication in lysis buffer (20 mM Tris–HCl pH 9.0, 100 mM NaCl, 10 mM imidazole, supplemented with 0.1% Triton X‐100). The proteins were purified using Ni‐NTA beads (GE Healthcare) and the His‐tag was cleaved using thrombin (Invitrogen) at room temperature for 16 h. The last step was gel filtration chromatography using a Superdex S200/300 GL column (GE Healthcare). The proteins were concentrated using spin concentrators (Vivaspin). For ITC and NMR studies, the non‐labelled and stable isotopes labelled LC3 and GABARAP proteins were obtained based on the protocols described elsewhere 30, 39. Here, E. coli NEB T7 Express culture transformed with corresponding plasmids were grown till OD600 nm = 1.0 and protein expression was induced with 0.2 mM IPTG. The cultures were incubated at 25°C for 8–12 h before cell harvesting. Isolation and purification procedures were similar to those reported in Ref. 22, 40. Before experiments, all proteins and peptides were equilibrated with a buffer containing 50 mM Na2HPO4, 100 mM NaCl at pH 7.0, and supplied with 5 mM protease inhibitor cocktail.
The protocol for preparation of non‐labelled and ^13C,^15N‐labelled PLEKHM1‐LIR peptide was slightly modified to achieve highest yield of the peptide. The 50 ml M9 culture was inoculated with NEB T7 cell transformed with pET39_Ub63‐PLEKHM1‐LIR plasmid and grown overnight at 37°. The collected cells were resuspended in 2 l of either LB or M9 media contained 1.5 g ^15N‐labelled NH4Cl and 3.0 g of ^13C‐labelled glucose. The cultures were grown at 37° till A(600 nm) = 0.9 and supplied with 1 mM of IPTG to induce Ub63‐PLEKHM1‐LIR overexpression (3 h at 37°). After that cells were harvested by centrifugation, re‐suspended in buffer contained 50 mM Tris–HCl pH = 7.9, 200 mM NaCl, 5% glycerol, 0.1 mg/ml DNase A and 4 mM protease inhibitor cocktail. After cell lysis by French press, debris was removed by centrifugation and clear supernatant was applied onto the column contained Ni‐NTA Sepharose equilibrated with the loading buffer (50 mM Tris–HCl pH = 7.9, 250 mM NaCl, 1% glycerol and 20 mM imidazole). Elution was performed with 400 mM imidazole in the same buffer. An aliquot of pure Ub63‐PLEKHM1‐LIR fractions was further purified by gel filtration on Superdex75 26 × 60 column for control ITC and analytical size exclusion chromatography experiments, remaining fusion protein was processed with the TEV‐protease and PLEKHM1‐LIR peptide was purified to 95% purity by reverse Ni‐NTA chromatography and followed gel filtration on Superdex75 26 × 60 column. Peak maximum of peptide was detected at […] (void volume 115 ml). Pure peptide was concentrated in Amicon concentrators with cut‐off of 3 kDa (> 95% retention). […]

The subject of experiment [1] is LC3 subfamily proteins (LC3A, LC3B). The experiment can be described thus: NMR titration of 15N-labelled LC3 proteins with PLEKHM1-LIR peptide. The format is binding, human. As to conditions: 298 K, 0.18 mM 15N-labelled protein, up to four times peptide excess. As for the experimental part: (§1) All NMR experiments were performed at 298 K on Bruker Avance spectrometers operating at proton frequencies of 500, 600 and 700 MHz. Titration experiments were performed with a 0.18 mM ^15N‐labelled LC3 and GABARAP protein samples to which the non‐labelled PLEKHM1‐LIR peptide was added stepwise until four times excess to LC3 proteins or two times excess to the GABARAP proteins. Backbone HN resonances for selected mATG8 proteins in complex with the PLEKHM1‐LIR peptide were assigned using [^15N‐^1H]‐TROSY versions of 3D HNCACB experiment. For assignment of PLEKHM1‐LIR peptide backbone HN resonances in complexes with the LC3 and GABARAP proteins, [^15N‐^1H]‐TROSY versions of 3D HNCACB experiment and hCcconh‐TOCSY experiment were used.

For the next experiment, the target named is GABARAP proteins. The experiment is described as follows: ITC, GABARAP proteins (range). The format is binding, human. The method, then: (§2) All titration experiments were performed at 25°C using a VP‐ITC microcalorimeter (Malvern Instruments Ltd, UK). The ITC data were analysed with the ITC‐Origin 7.0 software with a “one‐site” binding model. The peptides at concentrations of 0.4 mM were titrated into 0.020 mM LC3 and GABARAP proteins in 26 steps. The protein and peptide concentrations were calculated from the UV absorption at 280 nm by NanoDrop spectrophotometer (Thermo Fisher Scientific, DE, USA).

Experiment [2] concerns GABARAP subfamily proteins (GABARAP-L1, GABARAP-L2). The experiment can be described thus: NMR titration of 15N-labelled GABARAP proteins with PLEKHM1-LIR peptide. Format: binding, human. Particulars: 298 K, 0.18 mM 15N-labelled protein, up to two times peptide excess. As for the experimental part: as §1
For experiment [3], the target named is LC3-subfamily of proteins. The experiment can be described thus: ITC, LC3-subfamily (range). The format is binding, human. As for the experimental part:
as §2
In general terms: In ITC the heat of successive injections is recorded.

Ends that are not written are not given here.

In the case of GAMGPQQEDEWVNVQYPD [PLEKHM1‐LIR WT], the ΔH on LC3A (VP-ITC, one-site model, 0.4 mM peptide into 0.020 mM protein, 50 mM Na2HPO4, 100 mM NaCl) was -7 ± 0.2 kcal/mol. Further, at LC3A, the KA is listed as 0.24 ± 0.02 ×10^6 M^−1, the “N (number of binding sites)” value stood at 0.98 ± 0.02, the ΔG is -7.33 kcal/mol and the ΔS result was “+1.17 cal mol^−1 K^−1”. The “−T × ΔS” value on LC3A is -0.35 kcal/mol. In addition, in experiment [1], the “exchange behaviour upon titration, LC3 subfamily” value is recorded as “intermediate exchange”. Also, the Kd (in general, the equilibrium constant for the complex coming apart) on GABARAP proteins was 550 to 770 nM. Moreover, the “exchange behaviour upon titration, GABARAP subfamily” value in experiment [2] was “slow exchange”. In addition, the Kd in experiment [3] was 3500 to 6300 nM.

The record behind these values is article PMC5538626, “Structural and functional analysis of the GABARAP interaction motif (GIM)” (EMBO Reports, 2017).
